Reference: patent US20090280172A1, “GALENIC FORMULATIONS OF ORGANIC COMPOUNDS” (priority 2006, published 2009)

Assay: Bioavailability of transmucosal dosage forms of aliskiren compared with oral formulations
Type: in vivo
Details: transmucosal route vs oral formulation e.g. as employed in WO2005/089729

- increase of bioavailability over the bioavailability of an oral formulation: at least three times
SMILES: COCCCOc1cc(C[C@@H](C[C@H](N)[C@@H](O)C[C@H](C(=O)NCC(C)(C)C(N)=O)C(C)C)C(C)C)ccc1OC [aliskiren, 2(S),4(S),5(S),7(S)-N-(3-amino-2,2-dimethyl-3-oxopropyl)-2,7-di(1-methylethyl)-4-hydroxy-5-amino-8-[4-methoxy-3-(3-methoxy-propoxy)phenyl]-octanamide]
